Laboratory results published in US12180207B2 (ARRAY BIOPHARMA INC., priority 2018, dated 2024).

Tests used:
[1] = target: dephosphorylated FGFR1 (SEQ ID NO: 1, amino acids 458 to 765) (Homo sapiens (Human), UniProt P11362); assay: FGFR enzyme binding assay (HTRF tracer displacement), FGFR1; details: 5 nM dephosphorylated FGFR1, average of multiple determinations if made
Summary of the method: (§1)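 Kinase and tracer were incubated with compound for 60 minutes at 22° C. Tracer displacement was then measured by HTRF, and results were expressed as POC with 1 μM control inhibitor defining full displacement.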

[2] = target: HEK-293 cells transfected with dox-inducible human wild type FGFR1 (Homo sapiens (Human), UniProt P11362); assay: FGFR1 pERK cell assay; assay type: cell-based; details: HEK-293 dox-inducible FGFR1, 1 hour compound, 100 ng/ml FGF-acidic; maximum concentration 5 μM
Chain of HEK-293 cells transfected with dox-inducible human wild type FGFR1 (P11362 22-822): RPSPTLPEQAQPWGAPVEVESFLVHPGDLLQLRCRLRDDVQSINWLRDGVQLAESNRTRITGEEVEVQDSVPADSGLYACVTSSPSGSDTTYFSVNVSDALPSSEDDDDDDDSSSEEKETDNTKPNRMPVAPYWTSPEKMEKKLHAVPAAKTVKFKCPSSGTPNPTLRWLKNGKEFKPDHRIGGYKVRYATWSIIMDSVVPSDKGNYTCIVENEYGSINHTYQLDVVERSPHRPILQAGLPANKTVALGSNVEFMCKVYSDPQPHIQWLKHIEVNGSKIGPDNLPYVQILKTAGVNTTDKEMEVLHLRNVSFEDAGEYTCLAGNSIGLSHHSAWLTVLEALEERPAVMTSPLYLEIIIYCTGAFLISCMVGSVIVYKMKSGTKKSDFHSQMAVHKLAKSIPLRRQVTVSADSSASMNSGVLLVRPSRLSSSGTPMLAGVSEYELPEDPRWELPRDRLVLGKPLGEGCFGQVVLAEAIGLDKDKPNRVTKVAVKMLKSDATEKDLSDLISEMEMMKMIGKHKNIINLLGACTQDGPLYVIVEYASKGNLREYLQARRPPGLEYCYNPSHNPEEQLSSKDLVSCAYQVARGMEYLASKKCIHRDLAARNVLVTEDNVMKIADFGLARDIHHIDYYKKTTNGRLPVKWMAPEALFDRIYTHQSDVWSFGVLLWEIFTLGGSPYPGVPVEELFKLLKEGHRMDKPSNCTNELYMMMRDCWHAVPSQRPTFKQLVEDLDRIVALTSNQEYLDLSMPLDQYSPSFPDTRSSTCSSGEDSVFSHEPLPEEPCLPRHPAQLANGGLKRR
Summary of the method: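 In HEK-293 cells with dox-induced human wild-type FGFR1, compounds (1:3 dilutions, top 5 μM final) were applied 1 h at 37°C before 5 min stimulation with 100 ng/ml FGF-acidic. Phospho-ERK1/2 measured by MSD sandwich immunoassay; IC50 from 4-parameter fit of POC versus vehicle and control compound.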

[3] = target: HEK-293 cells transfected with dox-inducible human wild type FGFR3 (Homo sapiens (Human), UniProt P22607); assay: FGFR3 pERK cell assay; assay type: cell-based; details: HEK-293 dox-inducible FGFR3, 1 hour compound, 100 ng/ml FGF-acidic; maximum concentration 5 μM
Chain of HEK-293 cells transfected with dox-inducible human wild type FGFR3 (P22607 23-806): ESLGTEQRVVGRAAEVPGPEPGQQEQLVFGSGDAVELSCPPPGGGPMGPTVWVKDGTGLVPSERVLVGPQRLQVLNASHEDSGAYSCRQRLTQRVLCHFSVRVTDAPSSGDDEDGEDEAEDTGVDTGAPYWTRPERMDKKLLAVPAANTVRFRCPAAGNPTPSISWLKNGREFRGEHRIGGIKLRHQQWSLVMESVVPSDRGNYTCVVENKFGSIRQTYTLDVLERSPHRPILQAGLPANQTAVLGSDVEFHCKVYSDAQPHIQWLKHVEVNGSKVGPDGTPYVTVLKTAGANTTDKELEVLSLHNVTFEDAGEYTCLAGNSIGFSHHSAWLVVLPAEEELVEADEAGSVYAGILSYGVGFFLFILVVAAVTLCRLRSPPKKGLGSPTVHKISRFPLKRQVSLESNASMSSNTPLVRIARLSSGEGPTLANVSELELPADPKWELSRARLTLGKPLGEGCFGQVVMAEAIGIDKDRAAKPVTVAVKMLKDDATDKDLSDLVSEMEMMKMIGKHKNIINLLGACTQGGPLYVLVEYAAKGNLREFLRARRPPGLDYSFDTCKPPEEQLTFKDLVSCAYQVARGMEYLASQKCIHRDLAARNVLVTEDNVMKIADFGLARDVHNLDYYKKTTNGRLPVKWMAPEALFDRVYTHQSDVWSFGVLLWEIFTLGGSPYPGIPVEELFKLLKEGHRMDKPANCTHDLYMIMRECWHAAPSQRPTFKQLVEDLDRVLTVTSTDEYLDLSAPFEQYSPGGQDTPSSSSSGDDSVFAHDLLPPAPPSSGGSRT
Summary of the method: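 Doxycycline-induced cells preincubated 1 h at 37 °C with compound (1:3 dilutions, top 5 μM final), then stimulated 5 min with 100 ng/ml FGF-acidic. Lysate phospho-ERK1/2 measured by MSD sandwich assay; IC50 at 50 POC from 4-parameter fit, normalised to no-compound and control-compound wells.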

[4] = target: phosphorylated FGFR3 (SEQ ID NO: 5, amino acids 449 to 759) (Homo sapiens (Human), UniProt P22607); assay: FGFR enzyme binding assay (HTRF tracer displacement), FGFR3; details: 5 nM phosphorylated FGFR3, average of multiple determinations if made
Chain of phosphorylated FGFR3 (SEQ ID NO: 5, amino acids 449 to 759) (P22607 449-759): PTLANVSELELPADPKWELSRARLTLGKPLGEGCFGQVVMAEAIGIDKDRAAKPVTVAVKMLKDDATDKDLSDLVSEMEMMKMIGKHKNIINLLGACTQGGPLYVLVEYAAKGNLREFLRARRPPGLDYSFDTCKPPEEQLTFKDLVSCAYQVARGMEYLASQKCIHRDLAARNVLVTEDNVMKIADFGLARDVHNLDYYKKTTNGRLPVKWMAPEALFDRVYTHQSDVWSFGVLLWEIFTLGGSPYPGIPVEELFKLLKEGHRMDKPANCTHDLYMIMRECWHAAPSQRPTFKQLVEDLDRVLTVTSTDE
Summary of the method: as §1

[5] = target: FGFR1 (SEQ ID NO: 1, amino acids 458-765) (Homo sapiens (Human), UniProt P11362); assay: LC/MS FGFR1 kobs assay (covalent protein modification); assay type: binding; details: 500 nM FGFR1, 3 μM compound
Chain of FGFR1 (SEQ ID NO: 1, amino acids 458-765) (P11362 458-765): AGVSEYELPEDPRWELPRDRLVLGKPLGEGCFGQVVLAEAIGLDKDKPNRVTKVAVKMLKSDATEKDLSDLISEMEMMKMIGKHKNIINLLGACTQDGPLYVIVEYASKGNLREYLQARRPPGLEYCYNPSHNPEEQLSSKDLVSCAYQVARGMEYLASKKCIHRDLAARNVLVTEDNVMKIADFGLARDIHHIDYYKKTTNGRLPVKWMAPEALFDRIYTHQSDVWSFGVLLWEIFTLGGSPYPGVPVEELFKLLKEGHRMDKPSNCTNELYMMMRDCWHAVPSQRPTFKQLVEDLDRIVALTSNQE
Summary of the method: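 Covalent labeling of FGFR1 kinase domain (aa 458-765) tracked over time by intact-protein LC/MS after formic acid quench. kobs derived by fitting DMSO-normalized percent unmodified FGFR1 to an exponential decay model.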

[6] = target: FGFR3 (SEQ ID NO: 5, amino acids 449-759) (Homo sapiens (Human), UniProt P22607); assay: LC/MS FGFR3 kobs assay (covalent protein modification); assay type: binding; details: 500 nM FGFR3, 3 μM compound
Chain of FGFR3 (SEQ ID NO: 5, amino acids 449-759) (P22607 449-759): as the sequence (P22607 449-759) above
Summary of the method: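 kobs is the rate constant from an exponential-decay fit of percent unmodified kinase, normalized to DMSO controls, averaged over multiple determinations where available. Time-course samples of FGFR1 (458-765) and FGFR3 (449-759) with compound were acid-quenched (0.4% formic acid) and protein adducts quantified by intact-mass LC/MS.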

Chain of dephosphorylated FGFR1 (SEQ ID NO: 1, amino acids 458 to 765) (P11362 458-765): as the sequence (P11362 458-765) above

| IC50 [1] [nM] | IC50 [2] [nM] | IC50 [3] [nM] | IC50 [4] [nM] | FGFR1 Enz kobs [5] [min⁻¹] | FGFR3 Enz kobs [6] [min⁻¹] | Structure (SMILES) |
| --- | --- | --- | --- | --- | --- | --- |
| 120 | 492 | 52 | 7 | 0.00127 | 0.01396 | C=CC(=O)N1CC(C(=O)N2CCC(n3cc(-c4cc(OC)c5c(Cl)cnn5c4)cn3)CC2)C1 [Example 122, 1-(3-(4-(4-(3-chloro-4-methoxypyrazolo[1,5-a]pyridin-6-yl)-1H-pyrazol-1-yl)piperidine-1-carbonyl)azetidin-1-yl)prop-2-en-1-one] |
| 35 | 96 | 13 | 2 | 0.00288 | 0.02537 | C=CC(=O)N1CC(S(=O)(=O)N2CCC(n3cc(-c4cc(OC)c5c(C#N)cnn5c4)cn3)CC2)C1 [Example 134, 6-(1-(1-((1-acryloylazetidin-3-yl)sulfonyl)piperidin-4-yl)-1H-pyrazol-4-yl)-4-methoxypyrazolo[1,5-a]pyridine-3-carbonitrile] |
| 35 | 342 | 40 | 3 | 0.0029 | 0.02201 | C=CC(=O)N1CCN(C(=O)N2CCC(n3cc(-c4cc(OC)c5c(C#N)cnn5c4)cn3)CC2)C[C@@H]1CC#N [Example 135, (S)-6-(1-(1-(4-acryloyl-3-(cyanomethyl)piperazine-1-carbonyl)piperidin-4-yl)-1H-pyrazol-4-yl)-4-methoxypyrazolo[1,5-a]pyridine-3-carbonitrile] |
| 27 | 116 | 16 | 2 | 0.01359 | 0.3446 | C#CC(=O)N1CC(C(=O)N2CCC(n3cc(-c4cc(OC)c5c(C#N)cnn5c4)cn3)CC2)C1 [Example 138, 4-methoxy-6-(1-(1-(1-propioloylazetidine-3-carbonyl)piperidin-4-yl)-1H-pyrazol-4-yl)pyrazolo[1,5-a]pyridine-3-carbonitrile] |
| 40 | ≥ 5000 | 3910 | 6 | 0.00014 | 0.00171 | COc1cc(-c2cnn(C3CCN(C(=O)C4CN(C(=O)/C=C/CO)C4)CC3)c2)cn2ncc(C#N)c12 [Example 141, (E)-6-(1-(1-(1-(4-hydroxybut-2-enoyl)azetidine-3-carbonyl)piperidin-4-yl)-1H-pyrazol-4-yl)-4-methoxypyrazolo [1,5-a]pyridine-3-carbonitrile] |
| 51 | 496 | 96 | 4 | 0.00306 | 0.01542 | COc1cc(-c2cnn(C3CCN(CC4CN(C(=O)/C=C/CN(C)C)C4)CC3)c2)cn2ncc(C#N)c12 [Example 146, (E)-6-(1-(1-((1-(4-(dimethylamino)but-2-enoyl)azetidin-3-yl)methyl)piperidin-4-yl)-1H-pyrazol-4-yl)-4-methoxypyrazolo [1,5-a]pyridine-3-carbonitrile] |
| 171 | 1960 | 592 | 11 | 0.0008 | 0.0082 | C=CC(=O)N1CC(CN2CCC(n3ncc(-c4cc(OC)c5c(C#N)cnn5c4)c3C)CC2)C1(C)C (stereo not drawn) [Example 151, 6-(1-(1-((1-acryloyl-2,2-dimethylazetidin-3-yl)methyl)piperidin-4-yl)-5-methyl-1H-pyrazol-4-yl)-4-methoxypyrazolo [1,5-a]pyridine-3-carbonitrile] |
| 320 | ≥ 5000 | 849 | 7 | 0.00338 | 0.03526 | COc1cc(-c2cnn(C3CCN(C(=O)C4CN(C(=O)/C=C/CN(C)C)C4)CC3)c2C)cn2ncc(C#N)c12 [Example 152, (E)-6-(1-(1-(1-(4-(dimethylamino)but-2-enoyl)azetidine-3-carbonyl)piperidin-4-yl)-5-methyl-1H-pyrazol-4-yl)-4-methoxypyrazolo [1,5-a]pyridine-3-carbonitrile] |
| 210 | 2 | 25 | 2 | 0.00975 | 0.1578 | COc1cc(-c2cnn(C3CCN(C(=O)C4(F)CN(C(=O)/C=C/CN(C)C)C4)CC3)c2C)cn2ncc(C#N)c12 [Example 153, (E)-6-(1-(1-(1-(4-(dimethylamino)but-2-enoyl)-3-fluoroazetidine-3-carbonyl)piperidin-4-yl)-5-methyl-1H-pyrazol-4-yl)-4-methoxypyrazolo [1,5-a]pyridine-3-carbonitrile] |
| 430 | 2630 | 122 | 19 | 0.00081 | 0.00747 | COC/C=C/C(=O)N1CC(F)(C(=O)N2CCC(n3ncc(-c4cc(OC)c5c(C#N)cnn5c4)c3C)CC2)C1 [Example 154, (E)-6-(1-(1-(3-fluoro-1-(4-methoxybut-2-enoyl)azetidine-3-carbonyl)piperidin-4-yl)-5-methyl-1H-pyrazol-4-yl)-4-methoxypyrazolo [1,5-a]pyridine-3-carbonitrile] |
| 598 | 3110 | 91 | 18 | 0.0008 | 0.00585 | CC#CC(=O)N1CC(F)(C(=O)N2CCC(n3ncc(-c4cc(OC)c5c(C#N)cnn5c4)c3C)CC2)C1 [Example 156, 6-(1-(1-(1-(but-2-ynoyl)-3-fluoroazetidine-3-carbonyl)piperidin-4-yl)-5-methyl-1H-pyrazol-4-yl)-4-methoxypyrazolo [1,5-a]pyridine-3-carbonitrile] |
| 274 | ≥ 5000 | 1150 | 6 | 0.0025 | 0.03267 | COc1cc(-c2cnn(C3CCN(C(=O)C4(C)CN(C(=O)/C=C/CN(C)C)C4)CC3)c2C)cn2ncc(C#N)c12 [Example 157, (E)-6-(1-(1-(1-(4-(dimethylamino)but-2-enoyl)-3-methylazetidine-3-carbonyl)piperidin-4-yl)-5-methyl-1H-pyrazol-4-yl)-4-methoxypyrazolo [1,5-a]pyridine-3-carbonitrile] |
| 168 | 1830 | 108 | 2 | 0.00588 | 0.1008 | COc1cc(-c2cnn(C3CCN(C(=O)C4(OC)CN(C(=O)/C=C/CN(C)C)C4)CC3)c2C)cn2ncc(C#N)c12 [Example 158, (E)-6-(1-(1-(1-(4-(dimethylamino)but-2-enoyl)-3-methoxyazetidine-3-carbonyl)piperidin-4-yl)-5-methyl-1H-pyrazol-4-yl)-4-methoxypyrazolo [1,5-a]pyridine-3-carbonitrile] |
| 144 | 737 | 30 | 3 | 0.00408 | 0.0605 | COc1cc(-c2cnn(C3CCN(CC4(OC)CN(C(=O)/C=C/CN(C)C)C4)CC3)c2C)cn2ncc(C#N)c12 [Example 159, (E)-6-(1-(1-((1-(4-(dimethylamino)but-2-enoyl)-3-methoxyazetidin-3-yl)methyl)piperidin-4-yl)-5-methyl-1H-pyrazol-4-yl)-4-methoxypyrazolo [1,5-a]pyridine-3-carbonitrile] |
| 571 | 3280 | 481 | 16 | 0.00659 | 0.08254 | COc1cc(-c2cnn(C3CN(C(=O)C4(F)CN(C(=O)/C=C/CN(C)C)C4)C3)c2C)cn2ncc(C#N)c12 [Example 160, (E)-6-(1-(1-(1-(4-(dimethylamino)but-2-enoyl)-3-fluoroazetidine-3-carbonyl)azetidin-3-yl)-5-methyl-1H-pyrazol-4-yl)-4-methoxypyrazolo [1,5-a]pyridine-3-carbonitrile] |
